Patent US9975921B2, “Crystal forms of anamorelin” (Helsinn Healthcare SA, priority 2004, dated 2018)

Experiments:
Format in all cases: physicochemical
[1] = Hygroscopicity study: Thermogravimetric analysis (TGA); settings: before DVS
Method: (§1) The hygroscopicity of (3R)-1-(2-methylalanyl-D-tryptophyl)-3-(phenylmethyl)-3-piperidinecarboxylic acid 1,2,2-trimethylhydrazide form C produced by the method disclosed in Example 4 (monohydrate) was evaluated using Dynamic Vapor Sorption analysis (DVS) and Thermogravimetric analysis (TGA). Dynamic Vapor Sorption Analysis (DVS)
The samples were analyzed using a Mettler 851e thermogravimetric analyzer. Samples were weighed into a crucible. The samples were heated from 30° C. to 300.0° C. ramped at 10.00° C./min with an air purge.

[2] = Hygroscopicity study: Dynamic Vapor Sorption analysis (DVS)
Method: as §1
The samples were analyzed using a Hiden IGAsorp vapor sorption analyzer. Each sample was placed in a sample pan and exposed to drying at 25° C. in a dry nitrogen stream for two hours. This assured that the samples being analyzed were at a constant weight prior to the start of the analysis. The samples were then analyzed at 25.0° C. The adsorption isotherm was conducted between: 10-90% RH with a step size of 10%. The desorption isotherm was conducted between 85-0% RH with a step size 10%. After the isotherms were complete, each of the samples were heated to 125° C. until the weight loss curve reached an asymptote or for 4 hours.

[3] = 12 month stability study: crystallinity using optical microscopy (USP <695>)
Method: (§2) Crystalline (3R)-1-(2-methylalanyl-D-tryptophyl)-3-(phenylmethyl)-3-piperidinecarboxylic acid 1,2,2-trimnethylhydrazide was placed in double plastic bags, closed under a nitrogen blanket, and placed inside a small fiberboard container, the physical appearance, water content, purity and crystallinity were tested every three months for a period of 12 months under a variety of conditions.

[4] = 12 month stability study: physical description (TM-106)
Method: as §2

[5] = 12 month stability study: water content by Karl Fischer; settings: 1 month
[6] = 12 month stability study: HPLC weight % (TM-808)
Method: as §2
(§3) The purity and water content of (3R)-1-(2-methylalanyl-D-tryptophyl)-3-(phenylmethyl)-3-piperidinecarboxylic acid 1,2,2-trimethylhydrazide was analyzed using HPLC and KF respectively before, during, and after the 12 month stability study.

[7] = 12 month stability study: HPLC area % (TM-808)
Method: as §2, §3

[8] = 12 month stability study: water content by Karl Fischer
Method: as §2, §3

[9] = 12 month stability study: DSC (USP <891>)
Method: as §2

CN(C)N(C)C(=O)[C@@]1(Cc2ccccc2)CCCN(C(=O)[C@@H](Cc2c[nH]c3ccccc23)NC(=O)C(C)(C)N)C1 [Form C monohydrate, (3R)-1-(2-methylalanyl-D-tryptophyl)-3-(phenylmethyl)-3-piperidinecarboxylic acid 1,2,2-trimethylhydrazide]
bound water initially contained [1]: 2.5 % by weight | relative humidity above which the dihydrate was formed ([2]; DVS): > 35% | water contained after steady adsorption ([2]; adsorption isotherm, 25.0° C., at 35% RH): 6 % by weight | additional adsorption ([2]; adsorption isotherm, up to 90% RH): No other significant additional adsorption | relative humidity down to which the dihydrate form was observed ([2]; desorption isotherm): 30 % RH

CN(C)N(C)C(=O)[C@@]1(Cc2ccccc2)CCCN(C(=O)[C@@H](Cc2c[nH]c3ccccc23)NC(=O)C(C)(C)N)C1 [crystalline anamorelin, (3R)-1-(2-methylalanyl-D-tryptophyl)-3-(phenylmethyl)-3-piperidinecarboxylic acid 1,2,2-trimethylhydrazide]
Crystallinity using Optical Microscopy ([3]; 5° C., 1 month): Crystal- | Crystallinity using Optical Microscopy ([3]; 5° C., 3 months): Crystal- | Crystallinity using Optical Microscopy ([3]; 5° C., 6 months): Crystal- | Crystallinity using Optical Microscopy ([3]; 5° C., 9 months): Crystal- | Crystallinity using Optical Microscopy ([3]; 5° C., 12 months): Crystal- | Crystallinity using Optical Microscopy ([3]; 25° C. 60% RH, 1 month): Crystal- | Crystallinity using Optical Microscopy ([3]; 25° C. 60% RH, 3 months): Crystal- | Crystallinity using Optical Microscopy ([3]; 25° C. 60% RH, 6 months): Crystal- | Crystallinity using Optical Microscopy ([3]; 25° C. 60% RH, 9 months): Crystal- | Crystallinity using Optical Microscopy ([3]; 25° C. 60% RH, 12 months): Crystal- | Crystallinity using Optical Microscopy ([3]; 40° C. 75% RH, 1 month): Crystal- | Crystallinity using Optical Microscopy ([3]; 40° C. 75% RH, 3 months): Crystal- | Crystallinity using Optical Microscopy ([3]; 40° C. 75% RH, 6 months): Crystal- | Crystallinity using Optical Microscopy ([3]; Initial): Crystal- | Physical Description ([4]; 5° C., 1 month): Off-white | Physical Description ([4]; 5° C., 3 months): Off-white | Physical Description ([4]; 5° C., 6 months): Off-white | Physical Description ([4]; 5° C., 9 months): White | Physical Description ([4]; 5° C., 12 months): Off-white | Physical Description ([4]; 25° C. 60% RH, 1 month): Off-white | Physical Description ([4]; 25° C. 60% RH, 3 months): Off-white | Physical Description ([4]; 25° C. 60% RH, 6 months): Off-white | Physical Description ([4]; 25° C. 60% RH, 9 months): Off-white | Physical Description ([4]; 25° C. 60% RH, 12 months): Off-white | Physical Description ([4]; 40° C. 60% RH, 1 month): Off-white | Physical Description ([4]; 40° C. 60% RH, 3 months): Off-white | Physical Description ([4]; 40° C. 60% RH, 6 months): Off-white | Physical Description ([4]; Initial): Off-white | Water content by Karl Fisher ([5]; 5° C.): 5.3% | Water content by Karl Fisher ([5]; 25° C. 60% RH): 5.8% | Water content by Karl Fisher ([5]; 40° C. 75% RH): 6.1% | HPLC Weight % ([6]; 5° C., 1 month): 92.0% | HPLC Weight % ([6]; 5° C., 3 months): 93.2% | HPLC Weight % ([6]; 5° C., 6 months): 93.9% | HPLC Weight % ([6]; 5° C., 9 months): 94.5% | HPLC Weight % ([6]; 5° C., 12 months): 94.3% | HPLC Weight % ([6]; 25° C. 60% RH, 1 month): 92.1% | HPLC Weight % ([6]; 25° C. 60% RH, 3 months): 93.2% | HPLC Weight % ([6]; 25° C. 60% RH, 6 months): 94.2% | HPLC Weight % ([6]; 25° C. 60% RH, 9 months): 94.6% | HPLC Weight % ([6]; 25° C. 60% RH, 12 months): 94.2% | HPLC Weight % ([6]; 40° C. 75% RH, 1 month): 91.8% | HPLC Weight % ([6]; 40° C. 75% RH, 3 months): 93.0% | HPLC Weight % ([6]; 40° C. 75% RH, 6 months): 94.1% | HPLC Weight % ([6]; Initial): 99.8% | HPLC Area % ([7]; 5° C., 1 month): 99.7% | HPLC Area % ([7]; 5° C., 3 months): 99.7% | HPLC Area % ([7]; 5° C., 6 months): 99.7% | HPLC Area % ([7]; 5° C., 9 months): 99.8% | HPLC Area % ([7]; 5° C., 12 months): 99.7% | HPLC Area % ([7]; 25° C. 60% RH, 1 month): 99.7% | HPLC Area % ([7]; 25° C. 60% RH, 3 months): 99.7% | HPLC Area % ([7]; 25° C. 60% RH, 6 months): 99.7% | HPLC Area % ([7]; 25° C. 60% RH, 9 months): 99.8% | HPLC Area % ([7]; 25° C. 60% RH, 12 months): 99.7% | HPLC Area % ([7]; 40° C. 75% RH, 1 month): 99.7% | HPLC Area % ([7]; 40° C. 75% RH, 3 months): 99.7% | HPLC Area % ([7]; 40° C. 75% RH, 6 months): 99.7% | HPLC Area % ([7]; Initial): 99.8% | purity ([7]; after 12 months): relatively unchanged | Water content by Karl Fisher ([8]; 5° C., 3 months): 6.0% | Water content by Karl Fisher ([8]; 5° C., 6 months): 5.8% | Water content by Karl Fisher ([8]; 5° C., 9 months): 5.6% | Water content by Karl Fisher ([8]; 5° C., 12 months): 6.1% | Water content by Karl Fisher ([8]; 25° C. 60% RH, 3 months): 6.0% | Water content by Karl Fisher ([8]; 25° C. 60% RH, 6 months): 5.9% | Water content by Karl Fisher ([8]; 25° C. 60% RH, 9 months): 5.7% | Water content by Karl Fisher ([8]; 25° C. 60% RH, 12 months): 5.8% | Water content by Karl Fisher ([8]; 40° C. 75% RH, 3 months): 6.1% | Water content by Karl Fisher ([8]; 40° C. 75% RH, 6 months): 5.9% | water content (Karl Fischer Analysis) ([8]; after 12 months): approximately 6% | DSC Onset ([9]; 5° C., 3 months): 112.1 °C | DSC Peak ([9]; 5° C., 3 months): 117.1 °C | DSC Onset ([9]; 5° C., 6 months): 112.3 °C | DSC Peak ([9]; 5° C., 6 months): 116.9 °C | DSC Onset ([9]; 25° C. 60% RH, 3 months): 112.6 °C | DSC Peak ([9]; 25° C. 60% RH, 3 months): 117.7 °C | DSC Onset ([9]; 25° C. 60% RH, 6 months): 112.5 °C | DSC Peak ([9]; 25° C. 60% RH, 6 months): 117 °C | DSC Onset ([9]; 40° C. 75% RH, 3 months): 112.2 °C | DSC Peak ([9]; 40° C. 75% RH, 3 months): 117.5 °C | DSC Onset ([9]; 40° C. 75% RH, 6 months): 125.5 °C | DSC Peak ([9]; 40° C. 75% RH, 6 months): 117.8 °C | DSC Onset ([9]; Initial): 108.2 °C | DSC Peak ([9]; Initial): 112.7 °C
